Measured values: patent US20030096237A1, “Determination of the ability of patients to respond to a tumor treatment” (priority 2000, published 2003)

Experiments:
Assay in all cases: HLA class I induction, flow-cytometry
Format in all cases: cell-based, human
CNCM I-2545 = conditions: two days with IFN-α 100 U/ml, absence 196
Description: (§1) Melanoma cell lines were screened for their sensitivity to proliferation inhibition and HLA class I induction. The study was done of six cell lines (CNCM I-2544, CNCM I-2545, CNCM I-2546, CNCM I-2547, CNCM I-2548 and CNCM I-2549).
(§2) All these cell lines were cultured in RPMI medium supplemented with 10% FCS, glutamine (2 mM), sodium pyruvate (1 mM), non-essential amino acids and HEPES buffer (10 mM) (all from GIBCO Life Sciences, Paisley, UK). When confluent, the cells were passaged by trypsinization.
(§3) A number of established melanoma cell lines were assayed for their sensitivity to IFN-α by testing the capacity of IFN-α to inhibit their proliferation and to increase their surface expression of HLA class I determinants.

CNCM I-2546 = conditions: two days with IFN-α 100 U/ml, absence 257
Description: as §1, §2, §3

CNCM I-2547 = conditions: two days with IFN-α 100 U/ml, absence 135
Description: as §1, §2, §3

CNCM I-2548 = conditions: two days with IFN-α 100 U/ml, absence 380
Description: as §1, §2, §3

CNCM I-2549 = conditions: two days with IFN-α 100 U/ml, absence 203
Description: as §1, §2, §3

Substance: IFN-α
- HLA class I induction, mean fluorescence intensity (CNCM I-2545): (184 vs. 196)
- HLA class I induction, mean fluorescence intensity (CNCM I-2546): (521 vs. 257)
- HLA class I induction, mean fluorescence intensity (CNCM I-2547): (980 vs. 135)
- HLA class I induction, mean fluorescence intensity (CNCM I-2548): (559 vs. 380)
- HLA class I induction, mean fluorescence intensity (CNCM I-2549): (175 vs. 203)
